# Conditions: ob/ob mice, intraperitoneal route once a day for 14 days
# Experimental: Male C57 Black 6 ob/ob mice from 8 to 12 weeks old were used. […] After being weighed, the mice were treated with rosiglitazone (antidiabetic agent) on its own or in association with coenzyme Q10. […] In addition, the solution was pre-heated before injection. The mice were weighed every day and the weight obtained after 14 days of treatment was recorded.
smiles,measurement,setting,value
CN(CCOc1ccc(CC2SC(=O)NC2=O)cc1)c1ccccn1 (centres unmarked) [rosiglitazone],increase in the weight of the mice,,greater than or equal to 5 grams
same,increase in weight relative to initial weight,more than initial weight,about 10%
